Measured values reported in US20240343681A1, “MOLECULES HAVING PESTICIDAL UTILITY AND INTERMEDIATES AND PROCESSES RELATED THERETO” (priority 2021, published 2024).

Tested on: Beet Armyworm (Spodoptera exigua, LAPHEG) second instar larva
Test: Bioassay on beet armyworm (BAW), 128-well diet tray assay
Assay type: in vivo
Details: 50 μg/cm^2 on artificial diet, 25° C., five days
Experimental: Example A: Bioassays on Beet Armyworm (Spodoptera exigua, LAPHEG) (“BAW”) and Cabbage Looper (Trichoplusia ni, TRIPNI) (“CL”)
Bioassays on BAW were conducted using a 128-well diet tray assay. One second instar BAW larva was placed in each well (8 wells total) of the diet tray that had been previously filled with 1 mL of artificial diet to which 50 μg/cm^2 of the test molecule (dissolved in 50 μL of 90:10 acetone-water mixture) had been applied (to each of eight wells) and then allowed to dry. Trays were covered with a clear self-adhesive cover, vented to allow gas exchange, and held at 25° C., 14:10 light-dark for five days. Percent mortality was recorded for the larvae in each well; activity in the eight wells was then averaged.

SMILES | activity against BAW (percent mortality, averaged over eight wells)
Cc1ccccc1C(=O)Nc1cc(NC(=O)[C@H]2[C@H](c3cc(Cl)cc(Cl)c3)C2(Cl)Cl)ccc1Cl (racemic) [F73, trans-rac-N-(2-Chloro-5-(2,2-dichloro-3-(3,5-dichlorophenyl)cyclopropane-1-carboxamido)phenyl)-2-methylbenzamide] | exhibited activity
Cc1cc(C)cc(C(=O)Nc2cc(NC(=O)[C@H]3[C@H](c4cc(Cl)cc(Cl)c4)C3(Cl)Cl)ccc2Cl)c1 (racemic) [F76, trans-rac-N-(2-Chloro-5-(2,2-dichloro-3-(3,5-dichlorophenyl)cyclopropane-1-carboxamido)phenyl)-3,5-dimethylbenzamide] | exhibited activity
O=C(Nc1cc(NC(=O)[C@H]2[C@H](c3cc(Cl)cc(Cl)c3)C2(Cl)Cl)ccc1Cl)c1cccc(C(F)(F)F)c1 (racemic) [F81, trans-rac-N-(2-Chloro-5-(2,2-dichloro-3-(3,5-dichlorophenyl)cyclopropane-1-carboxamido)phenyl)-3-(trifluoromethyl)benzamide] | exhibited activity
O=C(Nc1cc(NC(=O)[C@H]2[C@H](c3cc(Cl)cc(Cl)c3)C2(Cl)Cl)ccc1Cl)c1ccccc1 (racemic) [F87, trans-rac-N-(2-Chloro-5-(2,2-dichloro-3-(3,5-dichlorophenyl)cyclopropane-1-carboxamido)phenyl)benzamide] | exhibited activity
O=C(Nc1cc(NC(=O)[C@H]2[C@H](c3cc(Cl)cc(Cl)c3)C2(Cl)Cl)ccc1Cl)c1cccc([N+](=O)[O-])c1 (racemic) [F88, trans-rac-N-(2-chloro-5-(2,2-dichloro-3-(3,5-dichlorophenyl)cyclopropane-1-carboxamido)phenyl)-3-nitrobenzamide] | exhibited activity
O=C(Nc1cc(NC(=O)[C@H]2[C@H](c3cc(Cl)cc(Cl)c3)C2(Cl)Cl)ccc1Cl)c1ccc([N+](=O)[O-])cc1 (racemic) [F89, trans-rac-N-(2-Chloro-5-(2,2-dichloro-3-(3,5-dichlorophenyl)cyclopropane-1-carboxamido)phenyl)-4-nitrobenzamide] | exhibited activity
Cc1cc([N+](=O)[O-])ccc1C(=O)Nc1cc(NC(=O)[C@H]2[C@H](c3cc(Cl)cc(Cl)c3)C2(Cl)Cl)ccc1Cl (racemic) [F90, trans-rac-N-(2-Chloro-5-(2,2-dichloro-3-(3,5-dichlorophenyl)cyclopropane-1-carboxamido)phenyl)-2-methyl-4-nitrobenzamide] | exhibited activity
C#Cc1ccc(C(=O)Nc2cc(NC(=O)[C@H]3[C@H](c4cc(Cl)cc(Cl)c4)C3(Cl)Cl)ccc2Cl)cc1 (racemic) [F91, trans-rac-N-(2-Chloro-5-(2,2-dichloro-3-(3,5-dichlorophenyl)cyclopropane-1-carboxamido)phenyl)-4-ethynylbenzamide] | exhibited activity
CC(CC(=O)N(C)c1cc(NC(=O)C2C(c3cc(Cl)cc(Cl)c3)C2(Cl)Cl)ccc1Cl)C(F)(F)F (racemic) [F92, trans-rac-2,2-dichloro-N-(4-chloro-3-(4,4,4-trifluoro-N,3-dimethylbutanamido)phenyl)-3-(3,5-dichlorophenyl)cyclopropane-1-carboxamide] | exhibited activity
Cc1cc(C#N)ccc1C(=O)N(C)c1cc(NC(=O)[C@H]2[C@H](c3cc(Cl)cc(Cl)c3)C2(Cl)Cl)ccc1Cl (racemic) [F93, trans-rac-N-(2-Chloro-5-(2,2-dichloro-3-(3,5-dichlorophenyl)cyclopropane-1-carboxamido)phenyl)-4-cyano-N,2-dimethylbenzamide] | exhibited activity
CN(C(=O)c1cc(F)cc(F)c1)c1cc(NC(=O)[C@H]2[C@H](c3cc(Cl)cc(Cl)c3)C2(Cl)Cl)ccc1Cl (racemic) [F94, trans-rac-N-(2-Chloro-5-(2,2-dichloro-3-(3,5-dichlorophenyl)cyclopropane-1-carboxamido)phenyl)-3,5-difluoro-N-methylbenzamide] | exhibited activity
O=C(COCC(F)(F)F)Nc1ccc(C(=O)Nc2cc(NC(=O)[C@H]3[C@H](c4ccc(F)c(C(F)(F)F)c4)C3(Cl)Cl)ccc2Cl)c(F)c1 (racemic) [F119, trans-rac-N-(2-Chloro-5-(2,2-dichloro-3-(4-fluoro-3-(trifluoromethyl)phenyl)cyclopropane-1-carboxamido)phenyl)-2-fluoro-4-(2-(2,2,2-trifluoroethoxy)acetamido)benzamide] | exhibited activity
O=C(CCC(F)(F)F)Nc1ccc(C(=O)Nc2cc(NC(=O)[C@H]3[C@H](c4ccc(F)c(C(F)(F)F)c4)C3(Cl)Cl)ccc2Cl)c(F)c1 (racemic) [F120, trans-rac-N-(2-Chloro-5-(2,2-dichloro-3-(4-fluoro-3-(trifluoromethyl)phenyl)cyclopropane-1-carboxamido)phenyl)-2-fluoro-4-(4,4,4-trifluorobutanamido)benzamide] | exhibited activity
O=C(CSC(F)(F)F)Nc1ccc(C(=O)Nc2cc(NC(=O)[C@H]3[C@H](c4ccc(F)c(C(F)(F)F)c4)C3(Cl)Cl)ccc2Cl)c(F)c1 (racemic) [F121, trans-rac-N-(2-Chloro-5-(2,2-dichloro-3-(4-fluoro-3-(trifluoromethyl)phenyl)cyclopropane-1-carboxamido)phenyl)-2-fluoro-4-(2-((trifluoromethyl)thio)acetamido)benzamide] | exhibited activity
CCOC(C)C(=O)Nc1c(F)ccc(NC(=O)[C@H]2[C@H](c3cc(Cl)c(Cl)c(Cl)c3)C2(Cl)Cl)c1F (stereo partly drawn) [F12, (1R,3R)-2,2-Dichloro-N-(3-(2-ethoxypropanamido)-2,4-difluorophenyl)-3-(3,4,5-trichlorophenyl)cyclopropane-1-carboxamide] | exhibited activity
O=C(Nc1ccc(F)c(NC(=O)C(F)(F)C(F)(F)C(F)(F)F)c1F)[C@H]1[C@H](c2cc(Cl)c(Cl)c(Cl)c2)C1(Cl)Cl [F13, (1R,3R)-2,2-Dichloro-N-(2,4-difluoro-3-(2,2,3,3,4,4,4-heptafluorobutanamido)phenyl)-3-(3,4,5-trichlorophenyl)cyclopropane-1-carboxamide] | exhibited activity
Cc1cc(C#N)ccc1C(=O)Nc1cc(NC(=O)[C@H]2[C@H](c3ccc(F)c(C(F)(F)F)c3)C2(Cl)Cl)ccc1Cl [F97, N-(2-Chloro-5-((1R,3R)-2,2-dichloro-3-(4-fluoro-3-(trifluoromethyl)phenyl)cyclopropane-1-carboxamido)phenyl)-4-cyano-2-methylbenzamide] | exhibited activity
Cc1cc(C#N)ccc1C(=O)Nc1cc(NC(=O)[C@H]2[C@H](c3ccc(F)c(Br)c3)C2(Cl)Cl)ccc1Cl [F98, N-(5-((1R,3R)-3-(3-Bromo-4-fluorophenyl)-2,2-dichlorocyclopropane-1-carboxamido)-2-chlorophenyl)-4-cyano-2-methylbenzamide] | exhibited activity
